Results published in ChEMBL document CHEMBL1201862, “PubChem BioAssay data set” (2004).
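Interpolation was linear, between the two tested concentrations surrounding the appropriate level; five concentrations were tested over 48 hours in 96-well plates. GI50 marks 50% less growth.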 The source made the active and inactive calls. Cut-off read from the data, not from the text of the source: active = GI50 up to about 1.1 µM and inactive = higher.

Legend:
Experiment in all cases: NCI anticancer screen, dose series, 48 h
RPMI-8226 = tested on: RPMI-8226
786-0 = tested on: 786-0
ACHN = tested on: ACHN
MDA-MB-231 = tested on: MDA-MB-231
OVCAR-5 = tested on: OVCAR-5
OVCAR-8 = tested on: OVCAR-8
NCI-H226 = tested on: NCI-H226
U-251 = tested on: U-251
UO-31 = tested on: UO-31
HOP-62 = tested on: HOP-62
SK-MEL-28 = tested on: SK-MEL-28
NCI/ADR-RES = tested on: NCI/ADR-RES
HOP-92 = tested on: HOP-92
HL-60 = tested on: HL-60
SK-MEL-5 = tested on: SK-MEL-5
HCT-15 = tested on: HCT-15
SN12C = tested on: SN12C
HT-29 = tested on: HT-29
OVCAR-4 = tested on: OVCAR-4
MCF7 = tested on: MCF7
MDA-N = tested on: MDA-N
NCI-H23 = tested on: NCI-H23
NCI-H522 = tested on: NCI-H522
MOLT-4 = tested on: MOLT-4
K562 = tested on: K562
CCRF-CEM = tested on: CCRF-CEM
T47D = tested on: T47D
NCI-H460 = tested on: NCI-H460
M14 = tested on: M14
Hs-578T = tested on: Hs-578T
Malme-3M = tested on: Malme-3M
SF-268 = tested on: SF-268
LOX IMVI = tested on: LOX IMVI
RXF 393 = tested on: RXF 393
SF-539 = tested on: SF-539
KM12 = tested on: KM12
DU-145 = tested on: DU-145
A498 = tested on: A498
EKVX = tested on: EKVX
TK-10 = tested on: TK-10
A549 = tested on: A549
HCT-116 = tested on: HCT-116
SW-620 = tested on: SW-620
OVCAR-3 = tested on: OVCAR-3
SR = tested on: SR
IGROV-1 = tested on: IGROV-1
SNB-75 = tested on: SNB-75
MDA-MB-435 = tested on: MDA-MB-435
UACC-257 = tested on: UACC-257
SNB-19 = tested on: SNB-19
CAKI-1 = tested on: CAKI-1
HCC 2998 = tested on: HCC 2998

Measured: GI50

COC(=O)c1cccc(C)c1C1CN=NC12Cc1cc(C)cc(C)c1C2=O (configuration not stated)
51.1 µM: HCT-15
inactive: RPMI-8226 33.5 µM | 786-0 48.8 µM | ACHN 28.8 µM | MDA-MB-231 30.1 µM | OVCAR-5 > 100 µM | OVCAR-8 44.8 µM | NCI-H226 61.5 µM | U-251 54.7 µM | UO-31 55.1 µM | HOP-62 53 µM | SK-MEL-28 60.4 µM | NCI/ADR-RES 23.1 µM | HOP-92 47.8 µM | HL-60 17.9 µM | SK-MEL-5 31.6 µM | SN12C 37.2 µM | HT-29 24.7 µM | OVCAR-4 51.1 µM | MCF7 40.4 µM | MDA-N 26.7 µM | NCI-H23 41.4 µM | NCI-H522 31.3 µM | MOLT-4 27 µM | K562 26.4 µM | CCRF-CEM 28.4 µM | T47D 23.2 µM | NCI-H460 30.8 µM | M14 34.8 µM | Hs-578T 47 µM | Malme-3M 32.2 µM | SF-268 39.8 µM | LOX IMVI > 100 µM | RXF 393 29.4 µM | SF-539 56.4 µM | KM12 34.4 µM | DU-145 41.3 µM | A498 51.5 µM | EKVX 26.3 µM | TK-10 > 100 µM | A549 33.5 µM | HCT-116 22.8 µM | SW-620 29.7 µM | OVCAR-3 47.1 µM | SR 39 µM | IGROV-1 52.5 µM | SNB-75 24.9 µM | MDA-MB-435 30.1 µM | UACC-257 > 100 µM | SNB-19 48.9 µM | CAKI-1 78.2 µM | HCC 2998 26.5 µM
